Like-named read-outs stand apart in the source and are kept apart here.
Target: T1, specific receptor on the membrane of human neutrophils (leukotriene B4) (Homo sapiens, UniProt Q15722)
T1 construct: Freshly-prepared buffy coat layers from two individuals were obtained from a local blood donor center; endogenous in cells; host or cells: intact human peripheral blood neutrophils from buffy coats of two donors
Test: Inhibition of Binding of ^3 H-LTB4 to Peripheral Human Neutrophils
Details: for inhibition at 10 µM / inhibition at 1 µM / inhibition at 0.1 µM: read-out: LTB4 Binding Inhibition; for inhibition at 0.1 µM: drug concentration 10^-7 M
Method: Cells used in the assay were isolated by standard techniques of centrifugation on Ficoll-Hypaque, dextran 70 sedimentation and hypotonic lysis. The following procedure was used. Freshly-prepared buffy coat layers from two individuals were obtained from a local blood donor center. The cells were mixed and diluted to 484 ml with phosphate buffered saline containing heparin (10 units/ml) and heat-inactivated calf serum (5%). This was divided into 20 ml aliquots and the aliquots layered on top of Ficoll-Paque (12 ml). The material was then centrifuged at 500 g for 40 minutes at room temperature. The resulting upper layer of platelets and mononuclear cells was discarded. The lower layer containing erythrocytes and neutrophils was retained. Buffer was added (1 ml per 4 ml of lower layer) and the suspension mixed. For each milliliter of this mixture, 0.33 ml of 6% Macrodex was added. After stirring, the cells were allowed to sediment for 1 hour at 37° C. The resulting erythrocyte pellet was discarded and the neutrophil enriched supernatant fluid centrifuged at 500 g for 10 minutes at 4° C. Erythrocytes still present in this cell pellet were lysed by incubating the cells with 5-8 ml ice-cold distilled water for 30-45 seconds. Subsequently, the volume was made up to 50 ml by addition of ice-cold buffer and the cells resuspended. The suspension was then centrifuged at 300 g for 10 minutes at 4° C. The cells were finally resuspended at a cell density of 2×10^7 cells/ml in the assay buffer This buffer consisted of Hanks' balanced salt solution and 0.1% ovalbumin (pH 7.3).
The amount of bound ^3 H-LTB4 was then measured and compared with the amount bound in the absence of test compound. The assay was carried out in microcentrifuge tubes by adding first 10 μl test compound dissolved in DMSO, followed by adding 20 μl ^3 H-LTB4 diluted in assay buffer, and finally adding 500 μl of the cell suspension. At the end of the 10 minutes incubation, 300 μl of a mixture of dibutyl and dinonyl phthalate (7:2) were added and the tubes centrifuged for 2 minutes in a microcentrifuge. The radioactivity bound to the cell pellet was measured by scintillation spectroscopy. Appropriate corrections for nonspecific bonding of ^3 H-LTB4 were made.

[1] = drug concentration 10^-5 M, 0.1-0.2 nM ^3 H-LTB4, 10 minutes at 4° C
[2] = drug concentration 10^-6 M, 0.1-0.2 nM ^3 H-LTB4, 10 minutes at 4° C
[3] = 0.1-0.2 nM ^3 H-LTB4, 10 minutes at 4° C

T1 sequence (Q15722 whole entry): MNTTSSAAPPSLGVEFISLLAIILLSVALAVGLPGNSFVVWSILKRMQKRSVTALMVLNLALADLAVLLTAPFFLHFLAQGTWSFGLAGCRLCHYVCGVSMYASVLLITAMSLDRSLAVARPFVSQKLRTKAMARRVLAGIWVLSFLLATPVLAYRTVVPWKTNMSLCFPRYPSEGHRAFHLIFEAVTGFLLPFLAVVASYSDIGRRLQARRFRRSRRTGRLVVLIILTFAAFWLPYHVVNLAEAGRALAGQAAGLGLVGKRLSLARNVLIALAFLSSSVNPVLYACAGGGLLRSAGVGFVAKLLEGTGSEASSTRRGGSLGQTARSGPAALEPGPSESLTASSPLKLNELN

Row | inhibition at 10 µM [1] | inhibition at 1 µM [2] | inhibition at 0.1 µM [3] | Structure (SMILES) | further results
1 | 19% | -6% |  | CCCCCCCCCCOc1ccc(C(=O)c2ccccc2C(=O)O)cc1CC(=O)OCC [Example 32, 5-(2-Carboxybenzoyl)-2-(decyloxy)benzeneacetic acid, ethyl ester] | 
2 | -14% | -10% |  | CCCCCCCCCCOc1ccc(C(O)c2cccc(C(=O)OCC)c2)cc1CC(=O)OCC (stereo not drawn) [Example 40, 2-(Decyloxy)-5-{[3-(ethoxycarbonyl)phenyl]hxdroxymethyl}benzeneacetic acid, ethyl ester] | 
3 | 41% | 11% |  | CCCCCCCCOc1ccc(C(O)c2cccc(C(=O)O)c2)cc1CC(=O)O (stereo not drawn) [Example 44, 5-[(3-Carboxyphenyl)hydroxymethyl]-2-(octyloxy)benzeneacetic acid] | 
4 | 88% | 41% |  | CCCCCCCCCCOc1ccc(Cc2cccc(C(=O)O)c2)cc1CCC(=O)O [Example 50, 5-[(3-Carboxyphenyl)methyl]-2-(decyloxy)benzenepropanoic acid] | 
5 | 96% | 91% | 36% | O=C(O)CCc1cc(C(=O)c2cccc(C(=O)O)c2)ccc1OCCCCC=Cc1ccccc1 [Example 76, 5-(3-Carboxybenzoyl)-2-[6-(phenyl-5-hexenyl)oxy]benzenepropanoic acid] | 
6 | 105% | 98% | 68% | COc1ccc(CCCCCCOc2ccc(C(=O)c3cccc(C(=O)O)c3)cc2CCC(=O)O)cc1 [Example 80, 5-(3-Carboxybenzoyl)-2-{[6-(4-methoxyphenyl)-hexyl]oxy}benzenepropanoicacid] | 
7 | 104% | 81% | 22% | O=C(O)CCc1cc(C(=O)c2cccc(C(=O)O)c2)ccc1OCCCCCCc1ccc(F)cc1 [Example 82, 5-(3-Carboxybenzoyl)-2-{[6-(4-fluorophenyl)hexyl]oxy}benzenepropanoic acid] | 
8 | 103% | 79% | 18% | CSc1ccc(C=CCCCCOc2ccc(C(=O)c3cccc(C(=O)O)c3)cc2CCC(=O)O)cc1 [Example 83, 5-(3-Carboxybenzoyl)-2-{[6-(4-methylmercaptophenyl)-5-hexenyl]oxy}benzenepropanoic acid] | 
9 | 99% | 91% | 49% | COc1cccc(C=CCCCCOc2ccc(C(=O)c3cccc(C(=O)O)c3)cc2CCC(=O)O)c1 [Example 84, 5-(3-Carboxybenzoyl)-2-{[6-(3-methoxyphenyl)-5-hexenyl]oxy}benzenepropanoic acid] | 
10 | 95% | 88% | 46% | COc1cccc(CCCCCCOc2ccc(C(=O)c3cccc(C(=O)O)c3)cc2CCC(=O)O)c1 [Example 86, 5-(3-Carboxybenzoyl)-2-{[6-(3-methoxyphenyl)hexyl]oxy}benzenepropanoic acid] | 
11 | 98% | 88% | 60% | CS(=O)(=O)c1ccc(C=CCCCCOc2ccc(C(=O)c3cccc(C(=O)O)c3)cc2CCC(=O)O)cc1 [Example 91, 5-(3-Carboxybenzoyl)-2-{[6-(4-methylsulfonylphenyl)-5-hexenyl]oxy}benzenepropanoic acid] | 
12 |  | 88% | 46% | CC(=O)c1ccc(CCCCCCOc2ccc(C(=O)c3cccc(C(=O)O)c3)cc2CCC(=O)O)cc1 [Example 101, 2-{[6-(4-Acetylphenyl)hexyl]oxy}-5-(3-carboxybenzoyl]benzenepropanoic acid] | 
13 | 98% | 72% | 18% | O=C(O)CCc1cc(NC(=O)c2cccc(C(=O)O)c2)ccc1OCCCCCCc1ccccc1 [Example 102] | 

The next lines start with the compound.

Row | Structure (SMILES) | inhibition at 10 µM [1] | inhibition at 1 µM [2] | inhibition at 0.1 µM [3] | further results
14 | CCCCCCCCCCOc1ccc(C(=O)c2cccc(C(=O)OCC)c2)cc1Cc1nnn[nH]1 [Example 2, 3-[4-(Decyloxy)-3-(1H-tetrazol-5-ylmethyl)-benzoyl]benzoic acid, ethyl ester] | -11% | 14% |  | 
15 | CCCCCCCCCCOc1ccc(C(=O)c2cccc(C(=O)OCC)c2)cc1CC(=O)OCC [Example 4, 2-(Decyloxy)-5-[3-(ethoxycarbonyl)benzoyl]benzeneacetic acid, ethyl ester] | -5% | -1% |  | 
16 | CCCCCCCCCCOc1ccc(C(=O)c2cccc(C#N)c2)cc1CC#N [Example 12, 5-(3-Cyanobenzoyl)-2-(decyloxy)benzeneacetonitrile] | 3% | -1% |  | 
17 | CCCCCCCCCCOc1ccc(C(=O)c2cccc(-c3nnn[nH]3)c2)cc1CC(=O)OCC [Example 15, 2-(Decyloxy)-5-[3-(1H-tetrazol-5-yl)benzoyl]benzeneacetic acid, ethyl ester] | -13% | 1% |  | 
18 | CCCCCCCCCCOc1ccc(C(=O)c2cccc(-c3nnn[nH]3)c2)cc1Cc1nnn[nH]1 [Example 17, [4-(Decyloxy)-3-(1H-tetrazol-5-ylmethyl)phenyl][3-(1H-tetrazol-5-yl)phenyl]methanone] | 81% | 20% |  | 
19 | CCCCCCCCCCCCCCOc1ccc(C(=O)c2cccc(C(=O)O)c2)cc1CC(=O)O [Example 26, 5-(3-Carboxybenzoyl)-2-(tetradecyloxy)benzeneacetic acid] | 63% | 10% |  | 
20 | CCCCCCCCCCCCOc1ccc(C(=O)c2cccc(C(=O)O)c2)cc1CC(=O)O [Example 27, 5-(3-Carboxybenzoyl)-2-(dodecyloxy)benzeneacetic acid] | 80% | 18% |  | 
21 | CCCCCCCCCCOc1ccc(C(=O)c2ccccc2C(=O)O)cc1CC(=O)O [Example 35, 5-(2-Carboxybenzoyl)-2-(decyloxy)benzeneacetic acid] |  |  |  | LTB4 Binding Inhibition [1]: 53 percent inhibition; LTB4 Binding Inhibition [2]: 2 percent inhibition
22 | O=C(O)CCc1cc(C(=O)c2cccc(C(=O)O)c2)ccc1OCCCC[S+]([O-])c1ccccc1 (stereo not drawn) [Example 77, 5-(3-Carboxybenzoyl)-2-[4-(phenylsulfinyl)-butoxy]benzenepropanoic acid] | 22% | 8% |  | 
23 | O=C(O)CCc1cc(C(=O)c2cccc(C(=O)O)c2)ccc1OCCCCS(=O)(=O)c1ccccc1 [Example 78, 5-(3-Carboxybenzoyl)-2-[4-(phenylsulfonyl)-butoxy]benzenepropanoic acid] | 18% | 4% |  | 
24 | COc1ccccc1C=CCCCCOc1ccc(C(=O)c2cccc(C(=O)O)c2)cc1CCC(=O)O [Example 85, 5-(3-Carboxybenzoyl)-2-{[6-(2-methoxyphenyl)-5-hexenyl]oxy}benzenepropanoic acid] | 101% |  | 86% | inhibition at 1 µM: 97%
25 | COc1ccccc1CCCCCCOc1ccc(C(=O)c2cccc(C(=O)O)c2)cc1CCC(=O)O [Example 87, 5-(3-Carboxybenzoyl)-2-{[6-(2-methoxyphenyl)hexyl]oxy}benzenepropanoic acid] |  | 91% | 34% | inhibition at 10 µM: 100%

Reference: patent US5171882A, “Leukotriene antagonists” (Eli Lilly and Company, priority 1990, dated 1992)
